Assay results: patent publication US20240226158A9, “ADMINISTRATION OF TUMOR INFILTRATING LYMPHOCYTES WITH MEMBRANE BOUND INTERLEUKIN 15 TO TREAT CANCER” (OBSIDIAN THERAPEUTICS, INC., priority 2021, published 2024)

Tested on: IL15 signaling pathway (pSTAT5, pS6)
Experiment: phospho-flow cytometry assay of IL15 expression and signaling
Format: cell-based, human
Conditions: regulated mbIL15 TILs, 18 hours, 4 donors
Method: Pre-REP TILs were prepared similarly to the methods of Example 1-3 and 9, and unengineered and mbIL15 TIL generated accordingly as described in Examples 1-3 and 9. Engagement of the IL15 signaling pathway results in phosphorylation of signal transducers downstream, including the transcription factor protein STATS and ribosomal protein S6. […] Next, the regulated mbIL15 TILs were regulated for 18 hours in the presence of a range of concentrations of ACZ including 0.1, 1, 2.5, 5, 10, 25, 100 μM, as well as vehicle control. The regulated mbIL15 TILs were then collected for staining and FACS analysis.
Briefly, cells were stained using antibodies for CD3, CD4, CD8, IL15 and a Live/Dead marker. Then cells were fixed in 2% formaldehyde (BD Cytofix) and permeabilized using a methanol-based buffer (BD Phospho Perm III Buffer) before staining with antibodies specific for phosphorylated STATS (Biolegend) and S6 (Cell Signaling Technology). Cells were acquired on the BD Symphony and analyzed using FlowJo software.
In order to compare different strategies for IL15 expression, TILs were utilized that constitutively express mbIL15 and regulated mbIL15 TILs. Cryopreserved unengineered TILs, constitutive mbIL15 TILs, and regulated mbIL15 TILs, from three human donors were thawed and then rested in ACZ-free media for 24 hours. […] Cells were acquired on the BD Fortessa and analyzed using FlowJo software.

CC(=O)Nc1nnc(S(N)(=O)=O)s1 [ACZ, acetazolamide]
relationship between ACZ and IL15 expression and signaling (pSTAT5, pS6): dose-dependent relationship
